Test results: patent publication US20190031599A1, “INDANE DERIVATIVES AS MGLUR7 MODULATORS” (Takeda Pharmaceutical Company Limited, priority 2016, published 2019)
Where a name gives a salt, the structure may show the parent alone.

The molecules below were run against T1, human mGluR7 (Homo sapiens, UniProt Q14831) (assay: mGluR7 assay: CRE-directed luciferase reporter gene assay, reduction of forskolin stimulated cAMP production). Conditions: stable CHO cell line expressing the CRE-luc reporter and human mGluR7 genes; decrease of forskolin stimulated luminescence; 10-point concentration-response, duplicate wells.
T1 construct: expressed in transfected cells
T1 sequence (Q14831 35-915): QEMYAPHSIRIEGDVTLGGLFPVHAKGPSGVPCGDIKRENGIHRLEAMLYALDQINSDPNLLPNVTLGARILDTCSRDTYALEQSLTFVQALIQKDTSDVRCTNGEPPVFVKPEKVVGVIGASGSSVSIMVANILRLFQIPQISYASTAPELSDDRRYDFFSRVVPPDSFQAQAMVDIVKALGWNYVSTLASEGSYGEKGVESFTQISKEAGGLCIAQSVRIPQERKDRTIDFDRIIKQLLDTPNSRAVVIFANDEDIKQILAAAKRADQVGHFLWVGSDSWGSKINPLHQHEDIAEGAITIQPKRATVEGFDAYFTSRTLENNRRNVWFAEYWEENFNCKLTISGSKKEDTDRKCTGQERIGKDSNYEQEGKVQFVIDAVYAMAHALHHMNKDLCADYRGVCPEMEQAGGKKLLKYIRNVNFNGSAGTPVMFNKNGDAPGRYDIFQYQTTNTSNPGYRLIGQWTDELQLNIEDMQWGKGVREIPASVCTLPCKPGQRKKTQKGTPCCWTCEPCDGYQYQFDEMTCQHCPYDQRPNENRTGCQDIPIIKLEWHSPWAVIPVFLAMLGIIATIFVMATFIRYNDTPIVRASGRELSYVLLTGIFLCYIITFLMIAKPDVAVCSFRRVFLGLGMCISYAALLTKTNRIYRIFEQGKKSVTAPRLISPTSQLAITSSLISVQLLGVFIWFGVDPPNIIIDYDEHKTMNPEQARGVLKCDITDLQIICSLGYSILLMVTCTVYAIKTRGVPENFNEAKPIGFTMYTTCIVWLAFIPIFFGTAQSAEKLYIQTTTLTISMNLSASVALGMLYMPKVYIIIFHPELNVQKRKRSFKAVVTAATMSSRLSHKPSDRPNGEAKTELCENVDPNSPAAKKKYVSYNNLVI
Type: cell-based
Method in brief: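 Stable CHO cell line co-expressing human mGluR7 and a CRE-luciferase reporter; compounds preincubated 15 min at 37 °C, then forskolin added and incubated 5 h at 37 °C. 10-point half-log concentration-response in duplicate, normalised to forskolin-alone (max) and forskolin plus tool mGluR7 agonist (min) controls.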

EC50 [nM]	Structure (SMILES)
7	C[C@H](C(=O)N[C@H]1Cc2ccccc2[C@@H]1NCC(F)(F)F)c1ccc(F)cc1F [Example 59, (2S)-2-(2,4-difluorophenyl)-N-[(1S,2S)-1-[(2,2,2-trifluoroethyl)amino]-2,3-dihydro-1H-inden-2-yl]propanamide]
45	CN[C@H]1c2ccccc2C[C@@H]1NC(=O)[C@@H](C)c1ccc(F)cc1 [Example 64, (2S)-2-(4-fluorophenyl)-N-[(1S,2S)-1-(methylamino)-2,3-dihydro-1H-inden-2-yl]propanamide]
94	C[C@H](C(=O)N[C@H]1Cc2ccccc2[C@@H]1N(C)C)c1ccc(F)cc1 [Example 74, (2S)—N-(trans)-[1-(dimethylamino)-2,3-dihydro-1H-inden-2-yl]-2-(4-fluorophenyl)propanamide]
320	CC(F)(C(=O)N[C@H]1Cc2ccccc2[C@@H]1N)c1ccc(F)cc1 (stereo partly drawn) [Example 75, N-[(1S,2S)-1-amino-2,3-dihydro-1H-inden-2-yl]-2-fluoro-2-(4-fluorophenyl)propanamide]
440	N[C@H]1c2ccccc2C[C@@H]1NC(=O)C1(c2ccccc2Cl)CC1 [Example 79, N-[(1S,2S)-1-amino-2,3-dihydro-1H-inden-2-yl]-1-(2-chlorophenyl)cyclopropane-1-carboxamide]
814	CC(=O)N[C@H]1c2ccccc2C[C@@H]1NC(=O)[C@@H](C)c1ccc(F)cc1F [Example 80, (2S)-2-(2,4-difluorophenyl)-N-[(1S,2S)-1-acetamido-2,3-dihydro-1H-inden-2-yl]propanamide]
26	COC1c2ccccc2C[C@@H]1NC(=O)[C@@H](NS(=O)(=O)c1c(C)noc1C)c1ccc(F)cc1 (stereo partly drawn) [Example 83, (2S)-2-(3,5-dimethyl-1,2-isoxazole-4-sulfonamido)-2-(4-fluorophenyl)-N-((trans)-1-methoxy-2,3-dihydro-1H-inden-2-yl)acetamide]
721	N[C@H]1c2ccccc2C[C@@H]1NC(=O)C(c1ccc(F)cc1)C1CC1 (stereo partly drawn) [Example 86, N-[(1S,2S)-1-amino-2,3-dihydro-1H-inden-2-yl]-2-cyclopropyl-2-(4-fluorophenyl)acetamide]
582	CC(C)(C)OC(=O)N[C@H]1c2ccccc2C[C@@H]1NC(=O)C(C)(C)c1ccc(F)cc1 [Example 87, tert-butyl N-[(1S,2S)-2-[2-(4-fluorophenyl)-2-methylpropanamido]-2,3-dihydro-1H-inden-1-yl]carbamate]
53	CC(C)(C)OC(=O)N[C@H]1c2ccccc2C[C@@H]1NC(=O)C1(c2ccccc2)COC1 [Example 88, tert-butyl N-[(1S,2S)-2-(3-phenyloxetane-3-amido)-2,3-dihydro-1H-inden-1-yl]carbamate]
1610	C[C@H](C(=O)N[C@H]1Cc2ccccc2[C@@H]1NS(C)(=O)=O)c1ccc(F)cc1F [Example 89, (2S)-2-(2,4-difluorophenyl)-N-[(1S,2S)-1-methanesulfonamido-2,3-dihydro-1H-inden-2-yl]propanamide]
10	C[C@H](C(=O)N[C@H]1Cc2ccccc2[C@@H]1NCC1CCC1)c1ccc(F)cc1F [Example 90, (2S)—N-[(1S,2S)-1-[(cyclobutylmethyl)amino]-2,3-dihydro-1H-inden-2-yl]-2-(2,4-difluorophenyl)propanamide]
38	C[C@H](C(=O)N[C@H]1Cc2ccccc2[C@@H]1NC1CCC1)c1ccc(F)cc1F [Example 91, (2S)—N-[(1S,2S)-1-(cyclobutylamino)-2,3-dihydro-1H-inden-2-yl]-2-(2,4-difluorophenyl)propanamide]
7	C[C@H](C(=O)N[C@H]1Cc2ccccc2[C@@H]1NCc1ncccc1F)c1ccc(F)cc1F [Example 92, (2S)-2-(2,4-difluorophenyl)-N-[(1S,2S)-1-{[(3-fluoropyridin-2-yl)methyl]amino}-2,3-dihydro-1H-inden-2-yl]propanamide]
46	CC(C)(C)OC(=O)N[C@H]1c2ccccc2C[C@@H]1NC(=O)C1(c2ccc(F)cc2)CCOCC1 [Example 94, tert-butyl N-[(1S,2S)-2-[4-(4-fluorophenyl)oxane-4-amido]-2,3-dihydro-1H-inden-1-yl]carbamate]
9	CN[C@@H]1c2ccccc2C[C@H]1NC(=O)[C@@H](C)c1ccc(F)cc1 [Example 95, (2S)-2-(4-fluorophenyl)-N-[(1R,2R)-1-(methylamino)-2,3-dihydro-1H-inden-2-yl]propanamide]
4	COC1c2ccccc2C[C@@H]1NC(=O)[C@@H](NC(=O)C1CCOCC1)c1ccc(F)cc1 (stereo partly drawn) [Example 98, (2S)-2-(4-fluorophenyl)-N-(trans)-(1-methoxy-2,3-dihydro-1H-inden-2-yl)-2-[(oxan-4-yl)formamido]acetamide]
2190	CC(C)(C(=O)N[C@H]1Cc2ccccc2[C@@H]1N)c1ccc(F)cc1 [Example 99, N-[(1S,2S)-1-amino-2,3-dihydro-1H-inden-2-yl]-2-(4-fluorophenyl)-2-methylpropanamide]

EC50 [nM]	Structure (SMILES)
27	CC(C)(C)OC(=O)N[C@H]1c2ccccc2C[C@@H]1NC(=O)C(c1ccc(F)cc1F)N1CCC1 (stereo partly drawn) [Example 100, tert-butyl N-[(1S,2S)-2-[2-(azetidin-1-yl)-2-(2,4-difluorophenyl)acetamido]-2,3-dihydro-1H-inden-1-yl]carbamate]
218	N[C@H]1c2ccccc2C[C@@H]1NC(=O)C(c1ccc(F)cc1F)N1CC(F)(F)C1 (stereo partly drawn) [Example 103, N-[(1S,2S)-1-amino-2,3-dihydro-1H-inden-2-yl]-2-(3,3-difluoroazetidin-1-yl)-2-(2,4-difluorophenyl)acetamide formate]
12	COC1CN(C(C(=O)N[C@H]2Cc3ccccc3[C@@H]2NC(=O)OC(C)(C)C)c2ccc(F)cc2F)C1 (stereo partly drawn) [Example 104, tert-butyl N-[(1S,2S)-2-[2-(2,4-difluorophenyl)-2-(3-methoxyazetidin-1-yl)acetamido]-2,3-dihydro-1H-inden-1-yl]carbamate]
146	N[C@H]1c2ccccc2C[C@@H]1NC(=O)C(c1ccc(F)cc1F)N1CC(F)C1 (stereo partly drawn) [Example 105, N-[(1S,2S)-1-amino-2,3-dihydro-1H-inden-2-yl]-2-(2,4-difluorophenyl)-2-(3-fluoroazetidin-1-yl)acetamide]
190	N[C@H]1c2ccccc2C[C@@H]1NC(=O)C(c1ccc(F)cc1F)N1CCC1 (stereo partly drawn) [Example 108, N-[(1S,2S)-1-amino-2,3-dihydro-1H-inden-2-yl]-2-(azetidin-1-yl)-2-(2,4-difluorophenyl)acetamide]
135	COC1CN(C(C(=O)N[C@H]2Cc3ccccc3[C@@H]2N)c2ccc(F)cc2F)C1 (stereo partly drawn) [Example 111, N-[(1S,2S)-1-amino-2,3-dihydro-1H-inden-2-yl]-2-(2,4-difluorophenyl)-2-(3-methoxyazetidin-1-yl)acetamide]
11	C[C@H](C(=O)N[C@@H]1Cc2ccccc2[C@H]1N1CC(F)C1)c1ccc(F)cc1 [Example 112, (2S)—N-[(1R,2R)-1-(3-fluoroazetidin-1-yl)-2,3-dihydro-1H-inden-2-yl]-2-(4-fluorophenyl)propanamide]
38	C[C@H](C(=O)N[C@@H]1Cc2ccccc2[C@H]1S(C)(=O)=O)c1ccc(F)cc1 [Example 113, (2S)-2-(4-fluorophenyl)-N-[(1R,2R)-1-methanesulfonyl-2,3-dihydro-1H-inden-2-yl]propanamide]
101	C[C@H](C(=O)N[C@H]1Cc2ccccc2[C@@H]1N(Cc1ncco1)Cc1ncco1)c1ccc(F)cc1F [Example 114, (2S)—N-[(1S,2S)-1-{bis[(1,3-oxazol-2-yl)methyl]amino}-2,3-dihydro-1H-inden-2-yl]-2-(2,4-difluorophenyl)propanamide]
63	N[C@H]1c2ccccc2C[C@@H]1NC(=O)C(c1ccc(F)cc1F)N1CC(OC(F)F)C1 (stereo partly drawn) [Example 119, N-[(1S,2S)-1-amino-2,3-dihydro-1H-inden-2-yl]-2-[3-(difluoromethoxy)azetidin-1-yl]-2-(2,4-difluorophenyl)acetamide]
3320	N[C@H]1c2ccccc2C[C@@H]1NC(=O)C1(c2ccccc2)CCNC1 (stereo partly drawn) [Example 120, N-[(1S,2S)-1-amino-2,3-dihydro-1H-inden-2-yl]-3-phenylpyrrolidine-3-carboxamide]
42	CC(C)(C)OC(=O)N[C@H]1c2ccccc2C[C@@H]1NC(=O)C1(c2ccccc2)CNC(=O)C1 (stereo partly drawn) [Example 121, tert-butyl N-[(1S,2S)-2-(5-oxo-3-phenylpyrrolidine-3-amido)-2,3-dihydro-1H-1-inden-1-yl]carbamate]
485	N[C@H]1c2ccccc2C[C@@H]1NC(=O)C1(c2ccccc2)CNC(=O)C1 (stereo partly drawn) [Example 122, N-[(1S,2S)-1-amino-2,3-dihydro-1H-inden-2-yl]-5-oxo-3-phenylpyrrolidine-3-carboxamide]
68	CC(C)(C)OC(=O)N[C@H]1c2ccccc2C[C@@H]1NC(=O)C1(c2ccccc2)CC(=O)C1 [Example 123, tert-butyl N-[(1S,2S)-2-(3-oxo-1-phenylcyclobutaneamido)-2,3-dihydro-1H-inden-1-yl]carbamate]
5	C[C@H](C(=O)N[C@H]1Cc2ccccc2[C@@H]1S(C)(=O)=O)c1ccc(F)cc1 [Example 132, (2S)-2-(4-fluorophenyl)-N-[(1S,2S)-1-methanesulfonyl-2,3-dihydro-1H-inden-2-yl]propanamide]
178	C[C@H](C(=O)N[C@H]1Cc2ccccc2[C@@H]1Nc1ncccn1)c1ccc(F)cc1F [Example 133, (2S)-2-(2,4-difluorophenyl)-N-[(1S,2S)-1-[(pyrimidin-2-yl)amino]-2,3-dihydro-1H-inden-2-yl]propanamide]
86	CCN[C@H]1c2ccccc2C[C@@H]1NC(=O)[C@@H](C)c1ccc(F)cc1 [Example 134, (2S)—N-[(1S,2S)-1-(ethylamino)-2,3-dihydro-1H-inden-2-yl]-2-(4-fluorophenyl)propanamide]
